From paper PMC8296573, “Synthesis and Biological Evaluation of Fingolimod Derivatives as Antibacterial Agents” (ACS Omega, 2021)
In brackets after ≈: the same amount, converted by molar mass. Read-outs that look alike come from different tables or passages of the source.

Columns and labels:
S. aureus ATCC 25923 [1] = test: Antibacterial activity, pre-exposure (planktonic cells and biofilm formation); format: cell-based, Staphylococcus aureus; conditions: for MIC / inhibition at 5 µM / inhibition at 10 µM / inhibition at 15 µM / inhibition at 25 µM: Staphylococcus aureus, ATCC25923; for inhibition at 5 µM / inhibition at 10 µM / inhibition at 15 µM / inhibition at 25 µM / Average inhibition %, biofilms viability / Average inhibition %, planktonic cells viability: pre-exposure, ± SD
Method in brief: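 Pre-exposure format: compound and bacterial culture co-incubated 18 h, 37 °C, aerobic, 220 rpm. Planktonic: turbidity (OD) plus resazurin viability, 20 μM final. Biofilm: PBS wash, 20 μM resazurin, then ethanol fixation and crystal violet staining, A595.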

S. aureus ATCC 25923 [2] = test: Antibacterial activity, post-exposure on preformed 18-h-old biofilms; format: cell-based, Staphylococcus aureus; conditions: ± SD; for inhibition at 25 µM / inhibition at 50 µM / inhibition at 100 µM / inhibition at 200 µM: Staphylococcus aureus; for inhibition at 25 µM: ATCC25923, 25 µM; for inhibition at 50 µM: ATCC25923, 50 µM; for inhibition at 100 µM: ATCC25923, 100 µM; for inhibition at 200 µM: ATCC25923, 200 µM
Experimental: For the post-exposure experiment, bacteria were grown with no compounds in the same conditions for 18 h, after which the media was changed, and compounds were added on the preformed biofilms. The plates were then incubated in the same conditions for an additional 24 h before proceeding to the staining assays.
(§1) The resazurin staining was performed according to the protocol previously optimized with a few modifications.[46] Briefly, the planktonic solution was first transferred into a new 96-well plate and the OD of the planktonic solution was measured using a Varioskan LUX Multimode microplate reader (Thermo Scientific, Vantaa, Finland). Then, 10 μL of a 400 μM resazurin (R7017, Sigma-Aldrich, St. Louis, MO) diluted in phosphate-buffered saline (PBS) (Thermo Fisher Scientific, MA) was added to the wells (for a final resazurin concentration of 20 μM). The plate was incubated in the dark with shaking (220 rpm) for about 3–10 min at room temperature with S. aureus and A. baumannii (until the bacteria controls turned pink) or for 20 min at 37 °C with P. aeruginosa. Fluorescence was measured at λex = 560 nm and λem = 590 nm using the top optics of the Varioskan LUX Multimode microplate reader. The planktonic plate was then discarded. The original challenge plate containing the biofilms was washed once with PBS, and 200 μL of a 20 μM resazurin solution was added to the wells. The plate was incubated in the dark at 37 °C with shaking (220 rpm) for 30 min with S. aureus, 60 min with A. baumannii, and 90 min with P. aeruginosa. Fluorescence was measured as described for the planktonic solution. The biofilms were next treated with crystal violet staining.
(§2) After removing the resazurin solution from the plate, biofilms were fixed with ethanol 100% for 15 min at room temperature. Ethanol was then removed, and the biofilms were left to air-dry completely at RT. Crystal violet, diluted to 1:100 in deionized water from the 2.3% commercial solution (HT90132, Sigma-Aldrich, St. Louis, MO), was added to the wells and, after a 5 min incubation with the dye, the biofilms were washed twice with deionized water and left to air-dry for about 10 min. The dye was solubilized in ethanol 100% for 1 h, and absorbance was measured at 595 nm using a Multiskan Sky microplate spectrophotometer (Thermo Scientific, Vantaa, Finland).

A. baumannii NCTC 13423 = test: Antibacterial activity, pre-exposure; format: cell-based, Acinetobacter baumannii; conditions: for Average inhibition %, biofilms viability / Average inhibition %, planktonic cells viability / inhibition at 10 µM / inhibition at 15 µM / inhibition at 25 µM / inhibition at 50 µM: A. baumannii NCTC 13423, pre-exposure, ± SD; for inhibition at 10 µM / inhibition at 15 µM / inhibition at 25 µM / inhibition at 50 µM / MIC: Acinetobacter baumannii, NCTC13423
Experimental: (§3) The antimicrobial activity was assessed in a similar way for the initial screening and the dose–response evaluation against different bacterial strains. With the exception of the post-exposure experiment, the compounds were added to the wells along with the bacteria to test the ability of compounds to prevent bacterial growth and biofilm formation (pre-exposure). The compounds were diluted in DMSO and plated directly in 96-well plates before adding the bacterial culture, and plates were incubated for 18 h under aerobic conditions at 37 °C with shaking (220 rpm). The antibacterial activity of the compounds was assessed on planktonic cells and biofilms separately using two different measurements for each: optical density (turbidity) and resazurin reduction (viability) on planktonic cells and resazurin followed by a crystal violet staining assay (total biomass) on biofilms, as described in the following sections.
as §1, §2

P. aeruginosa ATCC 9027 = test: Antibacterial activity, pre-exposure; format: cell-based, Pseudomonas aeruginosa; conditions: for Average inhibition %, biofilms viability / Average inhibition %, planktonic cells viability / inhibition at 50 µM / inhibition at 100 µM / inhibition at 150 µM / inhibition at 200 µM: P. aeruginosa ATCC 9027, pre-exposure, ± SD; for inhibition at 50 µM / inhibition at 100 µM / inhibition at 150 µM / inhibition at 200 µM: Pseudomonas aeruginosa, ATCC9027
Experimental: as §3, §1, §2

[3] = 10 µM, read-out: Average inhibition %, biofilms biomass
[4] = 10 µM, read-out: Average inhibition %, planktonic cells turbidity
[5] = 15 µM, read-out: Average inhibition %, biofilms biomass
[6] = 15 µM, read-out: Average inhibition %, planktonic cells turbidity
[7] = 25 µM, read-out: Average inhibition %, biofilms biomass
[8] = 25 µM, read-out: Average inhibition %, planktonic cells turbidity
[9] = read-out: Average inhibition %, biofilms biomass
[10] = read-out: Average inhibition %, planktonic cells turbidity
[11] = 50 µM, read-out: Average inhibition %, biofilms biomass
[12] = 50 µM, read-out: Average inhibition %, planktonic cells turbidity

- MIC (S. aureus ATCC 25923 [1]; lowest concentration with no visible growth (>90% inhibition of turbidity and viability of planktonic cells), 18 h, read-out: MIC S. aureus ATCC 25923): 15 to 25 µM (≈ 4.58 to 7.64 µg/mL)
- MIC (S. aureus ATCC 25923 [1]; read-out: MIC (S. aureus)): 15 to 25 µM (≈ 4.58 to 7.64 µg/mL)
- MIC (A. baumannii NCTC 13423; pre-exposure, Inactive = no activity up to 50 μM, > = some inhibition but no MIC reached, read-out: MIC A. baumannii NCTC 13423): > 50 µM
- MIC (A. baumannii NCTC 13423; supplementary molecular formula strings sheet, read-out: MIC (A. baumannii)): > 50 µM
- MIC P. aeruginosa ATCC 9027 (P. aeruginosa ATCC 9027; pre-exposure, Inactive = no activity up to 200 μM, > = some inhibition but no MIC reached): Inactive
Compound: CCCCCC/C=C/c1ccc(CCC(N)(CO)CO)cc1 [Compound 42, (E)-2-Amino-2-[4-(oct-1-en-1-yl)phenethyl]propane-1,3-diol]
- inhibition at 5 µM (S. aureus ATCC 25923 [1]; 5 µM, read-out: Average inhibition %, biofilms biomass): 41 ± 12.1%
- inhibition at 5 µM (S. aureus ATCC 25923 [1]; 5 µM, read-out: Average inhibition %, planktonic cells turbidity): 18.8 ± 12.6%
- inhibition at 10 µM (S. aureus ATCC 25923 [1]; [3]): 62.5 ± 24.1%
- inhibition at 10 µM (S. aureus ATCC 25923 [1]; [4]): 53.3 ± 32.3%
- inhibition at 15 µM (S. aureus ATCC 25923 [1]; [5]): 80.5 ± 26.4%
- inhibition at 15 µM (S. aureus ATCC 25923 [1]; [6]): 84.6 ± 26.1%
- inhibition at 25 µM (S. aureus ATCC 25923 [1]; [7]): 95.1 ± 0.5%
- inhibition at 25 µM (S. aureus ATCC 25923 [1]; [8]): 99.4 ± 0.5%
- Average inhibition %, biofilms viability (S. aureus ATCC 25923 [1]; 5 µM): 16.3 ± 4.8%
- Average inhibition %, planktonic cells viability (S. aureus ATCC 25923 [1]; 5 µM): 1.7 ± 3%
- Average inhibition %, biofilms viability (S. aureus ATCC 25923 [1]; 10 µM): 55.9 ± 31%
- Average inhibition %, planktonic cells viability (S. aureus ATCC 25923 [1]; 10 µM): 31.6 ± 54.9%
- Average inhibition %, biofilms viability (S. aureus ATCC 25923 [1]; 15 µM): 81.1 ± 32.3%
- Average inhibition %, planktonic cells viability (S. aureus ATCC 25923 [1]; 15 µM): 66.4 ± 57.5%
- Average inhibition %, biofilms viability (S. aureus ATCC 25923 [1]; 25 µM): 99.2 ± 0.8%
- Average inhibition %, planktonic cells viability (S. aureus ATCC 25923 [1]; 25 µM): 99.6 ± 0.2%
- Average inhibition %, biofilms viability (S. aureus ATCC 25923 [2]; 25 µM): 20 ± 6.1%
- Average inhibition %, planktonic cells viability (S. aureus ATCC 25923 [2]; 25 µM): 2.8 ± 5%
- Average inhibition %, biofilms viability (S. aureus ATCC 25923 [2]; 50 µM): 42 ± 16%
- Average inhibition %, planktonic cells viability (S. aureus ATCC 25923 [2]; 50 µM): 19.1 ± 18.9%
- Average inhibition %, biofilms viability (S. aureus ATCC 25923 [2]; 100 µM): 48.3 ± 2.3%
- Average inhibition %, planktonic cells viability (S. aureus ATCC 25923 [2]; 100 µM): 68.7 ± 18.2%
- Average inhibition %, biofilms viability (S. aureus ATCC 25923 [2]; 200 µM): 44.8 ± 10.4%
- Average inhibition %, planktonic cells viability (S. aureus ATCC 25923 [2]; 200 µM): 35.1 ± 44.8%
- inhibition at 25 µM (S. aureus ATCC 25923 [2]; [9]): 39 ± 2.5%
- inhibition at 25 µM (S. aureus ATCC 25923 [2]; [10]): 12 ± 9.6%
- inhibition at 50 µM (S. aureus ATCC 25923 [2]; [9]): 54.1 ± 1.9%
- inhibition at 50 µM (S. aureus ATCC 25923 [2]; [10]): 29.7 ± 16.3%
- inhibition at 100 µM (S. aureus ATCC 25923 [2]; [9]): 54.8 ± 5.9%
- inhibition at 100 µM (S. aureus ATCC 25923 [2]; [10]): 56.9 ± 19.5%
- inhibition at 200 µM (S. aureus ATCC 25923 [2]; [9]): 59.8 ± 21%
- inhibition at 200 µM (S. aureus ATCC 25923 [2]; [10]): 46.2 ± 27.3%
- Average inhibition %, biofilms viability (A. baumannii NCTC 13423; 10 µM): 0.4 ± 0.3%
- Average inhibition %, planktonic cells viability (A. baumannii NCTC 13423; 10 µM): 13.5 ± 3.1%
- Average inhibition %, biofilms viability (A. baumannii NCTC 13423; 15 µM): 12.8 ± 7.2%
- Average inhibition %, planktonic cells viability (A. baumannii NCTC 13423; 15 µM): 6 ± 6.6%
- Average inhibition %, biofilms viability (A. baumannii NCTC 13423; 25 µM): 47.6 ± 37.1%
- Average inhibition %, planktonic cells viability (A. baumannii NCTC 13423; 25 µM): 33.1 ± 52.5%
- Average inhibition %, biofilms viability (A. baumannii NCTC 13423; 50 µM): 87.7 ± 9.8%
- Average inhibition %, planktonic cells viability (A. baumannii NCTC 13423; 50 µM): 81 ± 27.7%
- inhibition at 10 µM (A. baumannii NCTC 13423; [3]): 2.4 ± 4.3%
- inhibition at 10 µM (A. baumannii NCTC 13423; [4]): 0%
- inhibition at 15 µM (A. baumannii NCTC 13423; [5]): 6.2 ± 6%
- inhibition at 15 µM (A. baumannii NCTC 13423; [6]): 0.6 ± 1%
- inhibition at 25 µM (A. baumannii NCTC 13423; [7]): 18.2 ± 21.6%
- inhibition at 25 µM (A. baumannii NCTC 13423; [8]): 40.8 ± 42.7%
- inhibition at 50 µM (A. baumannii NCTC 13423; [11]): 67.2 ± 13.9%
- inhibition at 50 µM (A. baumannii NCTC 13423; [12]): 83.1 ± 17.5%
- Average inhibition %, biofilms viability (P. aeruginosa ATCC 9027; 50 µM): 3.9 ± 6.8%
- Average inhibition %, planktonic cells viability (P. aeruginosa ATCC 9027; 50 µM): 24.8 ± 10.1%
- Average inhibition %, biofilms viability (P. aeruginosa ATCC 9027; 100 µM): 1.5 ± 2.6%
- Average inhibition %, planktonic cells viability (P. aeruginosa ATCC 9027; 100 µM): 15.1 ± 18%
- Average inhibition %, biofilms viability (P. aeruginosa ATCC 9027; 150 µM): 0.9 ± 1.7%
- Average inhibition %, planktonic cells viability (P. aeruginosa ATCC 9027; 150 µM): 18.9 ± 31%
- Average inhibition %, biofilms viability (P. aeruginosa ATCC 9027; 200 µM): 0 ± 0%
- Average inhibition %, planktonic cells viability (P. aeruginosa ATCC 9027; 200 µM): 27 ± 45%
- inhibition at 50 µM (P. aeruginosa ATCC 9027; [11]): 30.1 ± 8.8%
- inhibition at 50 µM (P. aeruginosa ATCC 9027; [12]): 16.3 ± 5.3%
- inhibition at 100 µM (P. aeruginosa ATCC 9027; 100 µM, read-out: Average inhibition %, biofilms biomass): 30.3 ± 0.8%
- inhibition at 100 µM (P. aeruginosa ATCC 9027; 100 µM, read-out: Average inhibition %, planktonic cells turbidity): 37.1 ± 13.5%
- inhibition at 150 µM (P. aeruginosa ATCC 9027; 150 µM, read-out: Average inhibition %, biofilms biomass): 27.7 ± 2.1%
- inhibition at 150 µM (P. aeruginosa ATCC 9027; 150 µM, read-out: Average inhibition %, planktonic cells turbidity): 45.1 ± 17.4%
- inhibition at 200 µM (P. aeruginosa ATCC 9027; 200 µM, read-out: Average inhibition %, biofilms biomass): 36.2 ± 10.3%
- inhibition at 200 µM (P. aeruginosa ATCC 9027; 200 µM, read-out: Average inhibition %, planktonic cells turbidity): 53.5 ± 14.1%
